{
  "source": "patent US12371454B2",
  "about": "“Cyclic peptide compound having Kras inhibitory action” (priority 2019, dated 2025)",
  "note": "Starred links: 1 amine or outer side, 2 acyl side, 3 side chain; linkers in the order of their positions; H or OH if unused. Positions of bridges follow the written chain, without caps; N, C: chain ends. Non-standard residues stand in square brackets, D forms with d. Residues, ends and D or L forms follow the SMILES beside them. *: point of attachment. hPhe(3-Cl-4-CF3) = N[C@@H](CCc1ccc(C(F)(F)F)c(Cl)c1)C(=O)O; NMeDab(N,N-(CH2CF2CH2)) = CN[C@@H](CCN1CC(F)(F)C1)C(=O)O; NEtPhe(4-CF3) = CCN[C@@H](Cc1ccc(C(F)(F)F)cc1)C(=O)O; NMePhe(2-CF3) = CN[C@@H](Cc1ccccc1C(F)(F)F)C(=O)O; hPhe(4-CF3) = N[C@@H](CCc1ccc(C(F)(F)F)cc1)C(=O)O; NMePhe(4-Cl) = CN[C@@H](Cc1ccc(Cl)cc1)C(=O)O; NMePhe(3-F) = CN[C@@H](Cc1cccc(F)c1)C(=O)O; NMePhe(4-F) = CN[C@@H](Cc1ccc(F)cc1)C(=O)O; hPhe(4-Cl) = N[C@@H](CCc1ccc(Cl)cc1)C(=O)O; NMedβ3hAla = C[C@H](CC(=O)[*:2])N(C)[*:1]; X22 = O=C([C@@H]1Cc2ccccc2N1[*:1])[*:2]; NMeGly(cPent) = CN[C@H](C(=O)O)C1CCCC1; Phe(3-I) = N[C@@H](Cc1cccc(I)c1)C(=O)O; Pro(4,4-F2) = O=C(O)[C@@H]1CC(F)(F)CN1; NMeY = CN[C@@H](Cc1ccc(O)cc1)C(=O)O; NMeCha = CN[C@@H](CC1CCCCC1)C(=O)O; NMeGly(cPr) = CN[C@H](C(=O)O)C1CC1; NMeChg = CN[C@H](C(=O)O)C1CCCCC1; NMeI = CC[C@H](C)[C@H](NC)C(=O)O; N(CH2CH2)2CF2 = FC1(F)CCN(*)CC1; NMeD = CN[C@@H](CC(=O)O)C(=O)O; NMeL = CN[C@@H](CC(C)C)C(=O)O; NMeV = CN[C@H](C(=O)O)C(C)C; d(β3hA) = C[C@@H](N)CC(=O)O; NMeS = CN[C@@H](CO)C(=O)O; Pip = O=C(O)[C@@H]1CCCCN1; dPip = O=C(O)[C@H]1CCCCN1; NMeA = CN[C@@H](C)C(=O)O; Nle = CCCC[C@H](N)C(=O)O; Piperidide = C1CCN(*)CC1; dNMeA = CN[C@H](C)C(=O)O; Ac5c = NC1(C(=O)O)CCCC1; Aze = O=C(O)[C@@H]1CCN1; Ac4c = NC1(C(=O)O)CCC1; CF3 = FC(F)(F)*; Sar = CNCC(=O)O; Propyl = CCC*",
  "data": [
    {"biological_target": "T1, Kras and SOS1 (biotin-tagged human Kras loaded with GDP, His-tagged human SOS1) (Homo sapiens, UniProt P01116, G12D)", "T1 construct": "made in house; host or cells: E. coli (stated for Kras only)", "T1 sequence (P01116 1-188 isoform P01116-2 G12D)": "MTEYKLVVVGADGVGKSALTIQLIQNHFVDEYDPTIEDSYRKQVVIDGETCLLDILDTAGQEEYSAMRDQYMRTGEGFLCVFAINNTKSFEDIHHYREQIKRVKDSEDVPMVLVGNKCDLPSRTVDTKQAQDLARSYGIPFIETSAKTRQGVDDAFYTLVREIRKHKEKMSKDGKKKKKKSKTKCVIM", "assay": "Protein-protein interaction inhibition between Kras and SOS1 (KrasGl2D-SOS PPI) using AlphaScreen", "type": "binding", "details": "AlphaScreen; biotin-tagged human Kras loaded with GDP, His-tagged human SOS1; read-out: KRAS G12D-SOS PPI IC50", "how_it_was_run": "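Binding between SOS1 and Kras is detected as bead-proximity luminescence: illuminate Ni-conjugated donors (680 nm), collect 520-620 nm emission from streptavidin-conjugated acceptors; Kras carries biotin and GDP loaded after purification, SOS1 carries a His tag.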", "units": {"IC50": "nM"}, "values": [
      {"smiles": "CC[C@H](C)[C@@H]1NC(=O)[C@H](CC(C)C)N(C)C(=O)C[C@@H](C(=O)N2CCCCC2)N(C)C(=O)[C@H](C2CCCCC2)N(C)C(=O)C2(CCCC2)NC(=O)[C@@H]2Cc3ccccc3N2C(=O)[C@H](CCc2ccc(C(F)(F)F)c(Cl)c2)NC(=O)CN(C)C(=O)[C@H](CC2CCCCC2)N(C)C(=O)[C@@H]2CCN2C(=O)[C@H](C)N(C)C1=O", "note": "[Compound 812] ([NMeL]I[NMeA][Aze][NMeCha][Sar][hPhe(3-Cl-4-CF3)][X22][Ac5c][NMeChg][NMeD]-Piperidide; lactam N-11)", "IC50": 36},
      {"smiles": "CCCC[C@@H]1NC(=O)[C@H](Cc2cccc(I)c2)NC(=O)CN(C)C(=O)[C@H](Cc2ccc(Cl)cc2)N(C)C(=O)CN(C)C(=O)CN(C)C(=O)[C@H]([C@@H](C)CC)NC(=O)[C@H](CC(C)C)N(C)C(=O)C[C@@H](C(=O)N2CCCCC2)N(C)C(=O)[C@H](CC(C)C)NC(=O)[C@H](Cc2ccccc2C(F)(F)F)N(C)C1=O", "note": "[Compound 813] ([NMeL]I[Sar][Sar][NMePhe(4-Cl)][Sar][Phe(3-I)][Nle][NMePhe(2-CF3)]L[NMeD]-Piperidide; lactam N-11)", "IC50": 69},
      {"smiles": "CCCOC[C@@H]1NC(=O)[C@H](CCN2CC(F)(F)C2)N(C)C(=O)[C@H](CCc2ccc(C(F)(F)F)c(Cl)c2)NC(=O)CN(C)C(=O)[C@H](CC2CCCCC2)N(C)C(=O)[C@@H]2CCN2C(=O)[C@H](C)N(C)C(=O)[C@H]([C@@H](C)CC)NC(=O)[C@H](CC(C)C)N(C)C(=O)C[C@@H](C(=O)N(C)C)N(C)C(=O)[C@H](C2CCCC2)N(C)C1=O", "note": "[Compound 817] ([NMeL]I[NMeA][Aze][NMeCha][Sar][hPhe(3-Cl-4-CF3)][NMeDab(N,N-(CH2CF2CH2))]S(Propyl)[NMeGly(cPent)][NMeD]-NMe2; lactam N-11)", "IC50": 15},
      {"smiles": "CCCC[C@@H]1NC(=O)[C@H](Cc2cccc(I)c2)NC(=O)CN(C)C(=O)[C@H](Cc2ccc(Cl)cc2)N(C)C(=O)CN(C)C(=O)CN(C)C(=O)[C@H]([C@@H](C)CC)NC(=O)[C@H](CC(C)C)N(C)C(=O)C[C@@H](C(=O)N2CCCCC2)N(C)C(=O)[C@H](CC(C)C)NC(=O)[C@H](Cc2ccc(OC(F)(F)F)cc2)N(C)C1=O", "note": "[Compound 819] ([NMeL]I[Sar][Sar][NMePhe(4-Cl)][Sar][Phe(3-I)][Nle][NMeY](CF3)L[NMeD]-Piperidide; lactam N-11)", "IC50": 53},
      {"smiles": "CC[C@H](C)[C@@H]1NC(=O)[C@H](C)N(C)C(=O)C[C@@H](C(=O)N2CCCCC2)N(C)C(=O)[C@H](C(C)C)N(C)C(=O)C2(CCCC2)NC(=O)[C@H](Cc2ccc(F)cc2)N(C)C(=O)[C@H](CCc2ccc(C(F)(F)F)c(Cl)c2)NC(=O)CN(C)C(=O)[C@H](CC2CCCCC2)N(C)C(=O)CN(C)C(=O)CN(C)C1=O", "note": "[Compound 821] ([NMeA]I[Sar][Sar][NMeCha][Sar][hPhe(3-Cl-4-CF3)][NMePhe(4-F)][Ac5c][NMeV][NMeD]-Piperidide; lactam N-11)", "IC50": 12},
      {"smiles": "CC[C@H](C)[C@@H]1NC(=O)[C@H](C)N(C)C(=O)C[C@@H](C(=O)N2CCCCC2)N(C)C(=O)[C@H](C(C)C)N(C)C(=O)[C@H](CC(C)C)NC(=O)[C@H](CC(=O)N2CCC(F)(F)CC2)N(C)C(=O)[C@H](CCc2ccc(C(F)(F)F)c(Cl)c2)NC(=O)CN(C)C(=O)[C@H](CC2CCCCC2)N(C)C(=O)CN(C)C(=O)CN(C)C1=O", "note": "[Compound 826] ([NMeA]I[Sar][Sar][NMeCha][Sar][hPhe(3-Cl-4-CF3)][NMeD](N(CH2CH2)2CF2)L[NMeV][NMeD]-Piperidide; lactam N-11)", "IC50": 110},
      {"smiles": "CC[C@H](C)[C@@H]1NC(=O)[C@H](C)N(C)C(=O)C[C@@H](C)NC(=O)[C@H](C2CCCC2)N(C)C(=O)C2(CCCC2)NC(=O)[C@@H]2CCCN2C(=O)[C@H](CCc2ccc(C(F)(F)F)c(Cl)c2)NC(=O)[C@@H](C)N(C)C(=O)[C@H](Cc2cccc(F)c2)N(C)C(=O)CN(C)C(=O)CN(C)C1=O", "note": "[Compound 830] (cyclo([Ac5c][NMeGly(cPent)][d(β3hA)][NMeA]I[Sar][Sar][NMePhe(3-F)][dNMeA][hPhe(3-Cl-4-CF3)]P))", "IC50": 280},
      {"smiles": "CC[C@H](C)[C@@H]1NC(=O)[C@H](C)N(C)C(=O)C[C@@H](C)NC(=O)[C@H](C(C)C)N(C)C(=O)C2(CCCC2)NC(=O)[C@@H]2CCCN2C(=O)[C@H](CCc2ccc(C(F)(F)F)c(Cl)c2)NC(=O)[C@@H](C)N(C)C(=O)[C@H](CC2CCCCC2)N(C)C(=O)[C@@H]2CCN2C(=O)[C@H](C)N(C)C1=O", "note": "[Compound 831] (cyclo([Ac5c][NMeV][d(β3hA)][NMeA]I[NMeA][Aze][NMeCha][dNMeA][hPhe(3-Cl-4-CF3)]P))", "IC50": 180},
      {"smiles": "CC[C@H](C)[C@@H]1NC(=O)[C@H](CC(C)C)N(C)C(=O)C[C@@H](C)N(C)C(=O)[C@H]([C@@H](C)CC)N(C)C(=O)C2(CCC2)NC(=O)[C@@H]2CC(F)(F)CN2C(=O)[C@H](CCc2ccc(C(F)(F)F)c(Cl)c2)NC(=O)CN(C)C(=O)[C@H](Cc2ccc(C(F)(F)F)cc2)N(CC)C(=O)[C@@H]2CCN2C(=O)[C@H](C)N(C)C1=O", "note": "[Compound 833] (cyclo([Ac4c][NMeI][NMedβ3hAla][NMeL]I[NMeA][Aze][NEtPhe(4-CF3)][Sar][hPhe(3-Cl-4-CF3)][Pro(4,4-F2)]))", "IC50": 9.1},
      {"smiles": "CC[C@H](C)[C@@H]1NC(=O)[C@H](C)N(C)C(=O)C[C@@H](C)NC(=O)[C@H](C(C)C)N(C)C(=O)C2(CCCC2)NC(=O)[C@@H]2CCCN2C(=O)[C@H](CCc2ccc(C(F)(F)F)c(Cl)c2)NC(=O)[C@H]2CCCCN2C(=O)[C@H](CC2CCCCC2)N(C)C(=O)[C@@H]2CCCN2C(=O)CN(C)C1=O", "note": "[Compound 834] (cyclo([Ac5c][NMeV][d(β3hA)][NMeA]I[Sar]P[NMeCha][dPip][hPhe(3-Cl-4-CF3)]P))", "IC50": 57},
      {"smiles": "CC[C@H](C)[C@@H]1NC(=O)[C@@H]2CCCCN2C(=O)C[C@@H](C(=O)N2CCCCC2)N(C)C(=O)[C@H](C(C)C)N(C)C(=O)C2(CCCC2)NC(=O)[C@@H]2CCCN2C(=O)[C@H](CCc2ccc(Cl)cc2)NC(=O)CN(C)C(=O)[C@H](CC2CCCCC2)N(C)C(=O)CN(C)C(=O)CN(C)C1=O", "note": "[Compound 841] ([Pip]I[Sar][Sar][NMeCha][Sar][hPhe(4-Cl)]P[Ac5c][NMeV][NMeD]-Piperidide; lactam N-11)", "IC50": 24},
      {"smiles": "CC[C@H](C)[C@@H]1NC(=O)[C@H](C2CC2)N(C)C(=O)C[C@@H](C)NC(=O)[C@H](C(C)C)N(C)C(=O)C2(CCCC2)NC(=O)[C@@H]2CCCN2C(=O)[C@H](CCc2ccc(C(F)(F)F)c(Cl)c2)NC(=O)CN(C)C(=O)[C@H](CC2CCCCC2)N(C)C(=O)CN(C)C(=O)CN(C)C1=O", "note": "[Compound 844] (cyclo([Ac5c][NMeV][d(β3hA)][NMeGly(cPr)]I[Sar][Sar][NMeCha][Sar][hPhe(3-Cl-4-CF3)]P))", "IC50": 28},
      {"smiles": "CC[C@H](C)[C@@H]1NC(=O)[C@@H]2CCCCN2C(=O)C[C@@H](C)NC(=O)[C@H](CC(C)C)N(C)C(=O)C2(CCCC2)NC(=O)[C@H](CC(C)C)N(C)C(=O)[C@H](CCc2ccc(C(F)(F)F)cc2)NC(=O)CN(C)C(=O)[C@H](Cc2ccc(Cl)cc2)N(C)C(=O)CN(C)C(=O)CN(C)C1=O", "note": "[Compound 847] (cyclo([Ac5c][NMeL][d(β3hA)][Pip]I[Sar][Sar][NMePhe(4-Cl)][Sar][hPhe(4-CF3)][NMeL]))", "IC50": 54},
      {"smiles": "CC[C@H](C)[C@@H]1NC(=O)[C@H](CC(C)C)N(C)C(=O)C[C@@H](C(=O)N2CCCCC2)N(C)C(=O)[C@H](COC)N(C)C(=O)C2(CCCC2)NC(=O)[C@@H]2CCCN2C(=O)[C@H](CCc2ccc(C(F)(F)F)c(Cl)c2)NC(=O)CN(C)C(=O)[C@H](CC2CCCCC2)N(C)C(=O)CN(C)C(=O)CN(C)C1=O", "note": "[Compound 850] ([NMeL]I[Sar][Sar][NMeCha][Sar][hPhe(3-Cl-4-CF3)]P[Ac5c][NMeS](Me)[NMeD]-Piperidide; lactam N-11)", "IC50": 24}
    ]}
  ]
}
